These results are taken from ChEMBL document CHEMBL4602605, “Fluoroquinolones structural and medicinal developments (2013-2018): Where are we now?” (Bioorg Med Chem, 2019).

Holding throughout (format): functional
Experiment [1] has as its system Escherichia coli. Description: Antimicrobial activity against Escherichia coli ATCC 25922 by CLSI method.
The test system of experiment [2] is Staphylococcus aureus. Description: Antimicrobial activity against Staphylococcus aureus ATCC 25923 by CLSI method.
Experiment [3] has as its system Escherichia coli. Kind of experiment: Antimicrobial activity against penicillin-resistant Escherichia coli at < 1 ug/ml relative to control.
Experiment [4] has as its system Enterococcus faecalis. Description: Antimicrobial activity against Enterococcus faecalis ATCC 29212 incubated for 24 hrs by serial dilution method. As to conditions: ATCC 29212, 24 h.
For a further experiment, the system named is PANC-1. Description: Growth inhibition of human PANC1 cells at 10 uM incubated for 48 hrs by MTT assay. As to conditions: PANC-1, 48 h, read-out: GI.
Experiment [5] relates to Staphylococcus aureus. Description: Antimicrobial activity against methicillin-resistant Staphylococcus aureus ATCC 33591 incubated for 24 hrs by serial dilution method. To be noted: ATCC 33591, 24 h.
For the next experiment, the system named is Klebsiella pneumoniae. Description: Antimicrobial activity against Klebsiella pneumoniae ATCC 35657 incubated for 24 hrs by serial dilution method. To be noted: ATCC 35657, 24 h.
The test system of a further experiment is HCT-116. Kind of experiment: Growth inhibition of human HCT116 cells at 10 uM incubated for 48 hrs by MTT assay relative to control. As to conditions: HCT-116, 48 h, read-out: GI.
Experiment [6] concerns Escherichia coli. Description: Antimicrobial activity against Escherichia coli ATCC 35218 incubated for 24 hrs by serial dilution method. As to conditions: ATCC 35218, 24 h.
In the next experiment the test system is HeLa. Description: Growth inhibition of human HeLa cells at 10 uM incubated for 48 hrs by MTT assay relative to control. As to conditions: read-out: GI.
Another experiment has as its system Moraxella catarrhalis. Kind of experiment: Antimicrobial activity against Moraxella catarrhalis ATCC 25238 incubated for 24 hrs by serial dilution method. To be noted: ATCC 25238, 24 h.
The test system of another experiment is A549. Kind of experiment: Growth inhibition of human A549 cells at 10 uM incubated for 48 hrs by MTT assay relative to control. As to conditions: A549, 48 h, read-out: GI.
For experiment [7], the system named is Staphylococcus aureus. Description: Antimicrobial activity against methicillin-susceptible Staphylococcus aureus ATCC 29213 incubated for 24 hrs by serial dilution method. To be noted: ATCC 29213, 24 h.
A further experiment has as its system Bacillus cereus. Description: Antimicrobial activity against Bacillus cereus 709 Roma incubated for 18 to 24 hrs by microbroth dilution method.
The next experiment concerns Pseudomonas aeruginosa. Kind of experiment: Antimicrobial activity against Pseudomonas aeruginosa ATCC 43288 incubated for 18 to 24 hrs by microbroth dilution method.
The test system of experiment [8] is Mycolicibacterium smegmatis. Description: Antimicrobial activity against Mycobacterium smegmatis ATCC 607 incubated for 48 to 72 hrs by microbroth dilution method.
Experiment [9] has as its system Escherichia coli. Description: Antimicrobial activity against Escherichia coli ATCC 25922 incubated for 18 to 24 hrs by microbroth dilution method.
The test system of experiment [10] is Enterococcus faecalis. Kind of experiment: Antimicrobial activity against Enterococcus faecalis ATCC 29212 incubated for 18 to 24 hrs by microbroth dilution method.
The subject of experiment [11] is Yersinia pseudotuberculosis. Description: Antimicrobial activity against Yersinia pseudotuberculosis ATCC 911 incubated for 18 to 24 hrs by microbroth dilution method.
In experiment [12] the test system is Staphylococcus aureus. Kind of experiment: Antimicrobial activity against Staphylococcus aureus ATCC 25923 incubated for 18 to 24 hrs by microbroth dilution method.
The subject of the next experiment is Mycolicibacter terrae. Kind of experiment: Antimicrobial activity against Mycobacterium terrae incubated for 10 days by microbroth dilution method. As to conditions: 240 h.
Experiment [13] concerns Mycobacterium tuberculosis. Kind of experiment: Antimicrobial activity against Mycobacterium tuberculosis H37Rv incubated for 10 days by microbroth dilution method. As to conditions: 240 h.
In another experiment the test system is Mycobacterium avium. Kind of experiment: Antimicrobial activity against Mycobacterium avium incubated for 10 days by microbroth dilution method. To be noted: 240 h.

In brackets after ≈: the same amount, converted by molar mass.

`O=C(O)c1cn(C2CC2)c2cc(N3CCN(C(=O)c4ccccc4)CC3)c(F)cc2c1=O`: the MIC against Escherichia coli [1] amounted to 2 µg/mL (≈ 4.59 µM); in the experiment on Staphylococcus aureus [2] it was 1 µg/mL (≈ 2.3 µM).

Regarding `O=C(O)c1cn(C2CC2)c2cc(N3CCN(Cc4ccccc4)CC3)c(F)cc2c1=O`, the minimum inhibitory concentration (MIC) against Escherichia coli [1] and against Staphylococcus aureus [2] was 0.25 µg/mL (≈ 0.593 µM) in each case.

As to `CCCOC(=O)c1cn(C2CC2)c2cc(N3CCNCC3)c(F)cc2c1=O`, in the experiment on Escherichia coli [3], the “inhibition (INH)” value is on record as more than 60%.

Turning to `CCN(CC)Cc1cn(-c2cc3c(cc2F)c(=O)c(C(=O)NO)cn3C2CC2)nn1`, the MIC with Enterococcus faecalis [4] was 64 µg/mL (≈ 154 µM); in the experiment on Staphylococcus aureus [5] it was more than 64 µg/mL; against Klebsiella pneumoniae, 8 µg/mL (≈ 19.3 µM); in the experiment with Escherichia coli [6] it was 16 µg/mL (≈ 38.6 µM); against Moraxella catarrhalis, 16 µg/mL (≈ 38.6 µM); against Staphylococcus aureus [7], 64 µg/mL (≈ 154 µM). Moreover, the inhibition of growth at 10 µM in the experiment on PANC-1 came to 30%; in the experiment with HCT-116, 30%; in the experiment on HeLa, 10%; in the experiment with A549, 40%.

In the case of `CC(C)NCc1cn(-c2cc3c(cc2F)c(=O)c(C(=O)NO)cn3C2CC2)nn1`, the MIC in the experiment with Enterococcus faecalis [4], in the experiment with Staphylococcus aureus [5], against Klebsiella pneumoniae, in the experiment with Escherichia coli [6], against Moraxella catarrhalis and against Staphylococcus aureus [7] was more than 64 µg/mL each time. For the same compound, the inhibition of growth at 10 µM in the experiment with PANC-1 was determined as 15%; in the experiment on HCT-116, 30%; in the experiment on HeLa, 30%; with A549, 35%.

As for `CN(C)Cc1cn(-c2cc3c(cc2F)c(=O)c(C(=O)NO)cn3C2CC2)nn1`, the MIC in the experiment on Enterococcus faecalis [4], against Staphylococcus aureus [5], against Klebsiella pneumoniae, against Escherichia coli [6], in the experiment with Moraxella catarrhalis and with Staphylococcus aureus [7] was more than 64 µg/mL each time. Also, the inhibition of growth at 10 µM in the experiment with PANC-1 was found to be 20%; in the experiment with HCT-116, 15%; in the experiment with HeLa it was 23%; in the experiment on A549, 30%.

Regarding `O=C(O)c1cn(C2CC2)c2cc(N3CCN(Cn4nc(CN5CCN(c6ccc([N+](=O)[O-])cc6)CC5)oc4=S)CC3)c(F)cc2c1=O`, the MIC (in the experiment on Bacillus cereus; against Pseudomonas aeruginosa; in experiment [8]; against Escherichia coli [9]; with Enterococcus faecalis [10]; in experiment [11]) was 0.03 µg/mL (≈ 0.0451 µM) each time. Also, in the experiment on Staphylococcus aureus [12], 0.03 µg/mL (≈ 0.0451 µM) was the least that counted as inhibitory (MIC).

Turning to `CCn1cc(C(=O)O)c(=O)c2cc(F)c(N3CCN(Cn4nc(CN5CCN(c6ccc([N+](=O)[O-])cc6)CC5)oc4=S)CC3)cc21`, the MIC in the experiment on Bacillus cereus is less than 0.25 µg/mL; against Pseudomonas aeruginosa, less than 0.25 µg/mL; in experiment [8], 1 µg/mL (≈ 1.53 µM); against Escherichia coli [9] it was 0.03 µg/mL (≈ 0.046 µM); with Enterococcus faecalis [10], less than 0.25 µg/mL; in [11], less than 0.25 µg/mL. Moreover, in the experiment with Staphylococcus aureus [12], the lowest concentration to inhibit growth (MIC) was 0.25 µg/mL (≈ 0.383 µM).

Regarding `CCCCCOC(=O)c1cn(C2CC2)c2cc(N3CCNCC3)c(F)cc2c1=O`, the “inhibition (INH)” value in the experiment with Escherichia coli [3] is listed as more than 60%.

With `CCn1cc(C(=O)O)c(=O)c2cc(F)c(N3CCN(Cn4nc(CN5CCN(c6ccc([N+](=O)[O-])cc6)CC5)n(-c5ccc(F)cc5)c4=S)CC3)cc21`, the MIC in the experiment on Bacillus cereus was 0.24 µg/mL (≈ 0.322 µM); against Pseudomonas aeruginosa it was 0.48 µg/mL (≈ 0.644 µM); in experiment [8] it was 0.244 µg/mL (≈ 0.327 µM); with Escherichia coli [9], less than 0.03 µg/mL; in the experiment with Enterococcus faecalis [10], 0.25 µg/mL (≈ 0.335 µM); in [11], 0.24 µg/mL (≈ 0.322 µM). The compound also showed an MIC with Staphylococcus aureus [12] of 0.48 µg/mL (≈ 0.644 µM).

`CCn1cc(C(=O)O)c(=O)c2cc(F)c(-c3cc4cc(C(C)(C)C)cc(C(C)(C)C)c4oc3=O)cc21`: the MIC turned out to be 1.5 µg/mL (≈ 3.05 µM) against Mycolicibacter terrae, 3.1 µg/mL (≈ 6.31 µM) in experiment [13] and 3.1 µg/mL (≈ 6.31 µM) in the experiment with Mycobacterium avium.

Regarding `CCn1c(CN2CCN(c3ccc([N+](=O)[O-])cc3)CC2)nn(CN2CCN(c3cc4c(cc3F)c(=O)c(C(=O)O)cn4CC)CC2)c1=S`, the MIC with Bacillus cereus was 0.122 to 0.25 µg/mL (≈ 0.179 to 0.368 µM); in the experiment with Pseudomonas aeruginosa it was 0.25 to 0.5 µg/mL (≈ 0.368 to 0.736 µM); in experiment [8] it was 0.244 µg/mL (≈ 0.359 µM); in the experiment on Escherichia coli [9] it was not above 0.03 µg/mL; in the experiment with Enterococcus faecalis [10], 0.122 µg/mL (≈ 0.179 µM); in [11], 0.25 µg/mL (≈ 0.368 µM). The MIC in the experiment on Staphylococcus aureus [12] lay within 0.25 to 0.99 µg/mL (≈ 0.368 to 1.46 µM).
